Several values for one entry are separate records, joined by “and”; a condition that tells them apart may be missing. Equal entries are not always repeated. Entries after “also recorded” stand apart in the source; their conditions may differ. Where two headings read alike, the source gives them in different places. Marks after values point to notes of the source that are not given here.
Key:
[1] = tested on: Clostridium perfringens (CP); assay type: in vivo, chickens
[2] = tested on: E. maxima; set-up: species or system chickens; conditions: in vivo
[3] = set-up: species or system Cobb 500 chicks; conditions: in vivo
[4] = tested on: Clostridium perfringens pathogen (CPP); assay type: in vivo, Cobb 500 chicks; conditions: CPP Challenge
[5] = tested on: Clostridium perfringens pathogen (CPP) + 1 ppm aflatoxin B1; set-up: species or system Cobb 500 chicks; conditions: in vivo
[6] = tested on: Clostridium perfringens pathogen (CPP) without and with Aflatoxin; set-up: species or system Cobb 500 chicks; conditions: in vivo
[7] = tested on: Clostridium perfringens (CPP) and aflatoxin; set-up: species or system Cobb 500 chicks; conditions: in vivo
[8] = tested on: Clostridium perfringens; assay type: in vivo, broiler chicken (Cobb X Cobb); conditions: infect
[9] = tested on: α-toxin antigen; conditions: in vivo
[10] = tested on: NetB toxin antigen; conditions: in vivo
[11] = tested on: IL8, LITAF, IL-6, iNOS, TNFSF15 expression; set-up: species or system broiler chickens (Ross/Ross); conditions: in vivo
[12] = tested on: IL8, LITAF, TNFSF15, IL-6, iNOS, IL-1β expression; set-up: species or system broiler chickens (Ross/Ross); conditions: in vivo

virginiamycin [VM]
Feed Conversion Day 0-21 ([1]; CP): 1.746 ^bcdef
Feed Conversion Day 0-28 ([1]; CP): 1.706 ^bcd
Feed Conversion Day 14-21 ([1]; CP): 1.566 ^d
Feed Conversion Day 14-28 ([1]; CP): 1.563 ^bcd
Weight Gain Day 0-21 ([1]; CP): 0.511 ^bcd
Weight Gain Day 0-28 ([1]; CP): 0.742 ^b
Weight Gain Day 14-21 ([1]; CP): 0.295 ^bcd
Weight Gain Day 14-28 ([1]; CP): 0.526 ^bcd
Lesion Score ([1]; CP, 0 to 3 score): 0.2^cd
Necrotic Enteritis Mortality, % ([1]; CP, listed as Virginiamycin): 6.3^bc %
Necrotic Enteritis Mortality, % ([1]; CP, listed as virginiamycin): significantly better than no product
Rank (lesion score, necrotic enteritis mortality, d 14-28 weight gain and feed conversion ratio) ([1]; Table A, birds with a Clostridium perfringens challenge): 1
reduction of disease, in words ([1]; in vivo): numerically the best
Feed Conversion Day 0-21 [2]: 1.676 ^ef
Feed Conversion Day 0-28 [2]: 1.604 ^e
Feed Conversion Day 14-21 [2]: 1.550 ^d
Feed Conversion Day 14-28 [2]: 1.480 ^d
Lesion Score [2]: 0.0^d
Necrotic Enteritis Mortality, % [2]: 0.0^c %
Weight Gain Day 0-21 [2]: 0.569 ^ab
Weight Gain Day 0-28 [2]: 0.845 ^a
Weight Gain Day 14-21 [2]: 0.325 ^a
Weight Gain Day 14-28 [2]: 0.601 ^a
Feed Conversion Ratio Day 0-10 [3]: 1.28^b
Feed Conversion Ratio Day 0-24 [3]: 1.34^ef
Feed intake, g Day 0-10 [3]: 22.6^ab g
Feed intake, g Day 10-24 [3]: 72.2^abc g and 72.2^abe g
Gain, g Day 0-10 [3]: 180^a g
Gain, g Day 0-24 [3]: 983^a g
Gain, g Day 10-24 [3]: 804^a g
Mortality, % Day 0-10 [3]: 0^f %
Mortality, % Day 10-24 [3]: 0.63^bc %
performance [3]: improved performance
Feed Conversion Ratio Day 0-10 [4]: 1.22^b
Feed Conversion Ratio Day 0-24 [4]: 1.33^f
Feed Conversion Ratio Day 10-24 [4]: 1.36^e
Feed intake, g Day 0-10 [4]: 20.9^cde g
Feed intake, g Day 0-24 [4]: 50.5^a g
Feed intake, g Day 10-24 [4]: 73.6^a g
Gain, g Day 0-10 [4]: 174^ab g
Gain, g Day 0-24 [4]: 980^a g
Gain, g Day 10-24 [4]: 806^a g
Lesions Day 20 [4]: 1.025^a
Mortality, % Day 0-10 [4]: 0.63^ef %
Mortality, % Day 10-24 [4]: 0.63^bc %
Gain, g Day 10-24 ([4]; listed as virginiamycin): improved gain compared to the diet with no product
Feed Conversion Ratio Day 0-24 [5]: 1.38^abcd
Feed Conversion Ratio Day 10-24 [5]: 1.43^ab
Feed intake, g Day 0-10 [5]: 20.0^efg
Feed intake, g Day 0-24 [5]: 41.7^f g
Feed intake, g Day 10-24 [5]: 58.7^g
Gain, g Day 0-10 [5]: 166^cd g
Gain, g Day 0-24 [5]: 788^f g
Gain, g Day 10-24 [5]: 622^f g
Lesions Day 20 [5]: 1.150^a
Mortality, % Day 0-10 [5]: 0.63^ef %
Mortality, % Day 10-24 [5]: 0.63^bc %
gain [5]: higher gains than adding NP
Daily Feed Intake, g 0-10 d [6]: 21.2^a g
Daily Feed Intake, g 0-24 d [6]: 47.6^ab g
Daily Feed Intake, g 10-24 d [6]: 68.2^b g
FCR (F:G) 0-10 d [6]: 1.24^c
FCR (F:G) 0-24 d [6]: 1.35^b
FCR (F:G) 10-24 d [6]: 1.39^b
Gain, g 0-10 d [6]: 173^a g
Gain, g 0-24 d [6]: 917^a g
Gain, g 10-24 d [6]: 744^a g
Lesion Score at d-20 [6]: 0.767
Mortality, % 0-10 d [6]: 0.42^c %
Mortality, % 10-24 d [6]: 0.63%
feed conversion [7]: improved; also recorded: greatest improvement at 1.5 ppm
feed intake [7]: improved
gain [7]: improved; also recorded: higher gain that those birds not fed VM; also recorded: helps improve gain; also recorded: not at 1.5 ppm AFL
lesion scores [7]: increased
mortality [7]: decreased
% NE Mortality [8]: 1.6 bc %
Feed Consumption D0-21 [8]: 4.733 b
Feed Consumption D0-28 [8]: 6.313 b
Feed Consumption D14-21 [8]: 2.312 c
Feed Consumption D14-28 [8]: 2.891 bc
Feed Conversion D0-21 [8]: 1.947 bc
Feed Conversion D0-28 [8]: 1.929 bc
Feed Conversion D14-21 [8]: 1.752 c
Feed Conversion D14-28 [8]: 1.797 c
Weight Gain D0-21 [8]: 0.316 b
Weight Gain D14-21 [8]: 0.171 a
Weight Gain D14-28 [8]: 0.367 b
NE (0-3) Lesion Score ([8]; DOT 21): 0.5 ab
antibodies to α-toxin (optical density) [9]: notable increases
serum antibody levels against α-toxin [9]: significantly higher
serum antibody levels against the NetB toxin antigen [10]: higher
serum antibody response against NetB toxin antigen [10]: increased
IL8 expression [11]: decreased
IL-6 expression [11]: generally decreased
LITAF expression [11]: decreased
iNOS expression [11]: generally decreased
TNFSF15 expression [12]: decreased
iNOS expression [12]: decreased

From patent US11337996B2 (priority 2012, dated 2022)
